According to PubChem BioAssay (NCI):
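These data come from cells grown in 96-well plates and exposed to compound for 48 hours at five concentrations. Abbreviation: GI50, concentration required for 50% inhibition of growth. The concentration for full growth arrest is given as TGI.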

What was measured:
Assay in all cases: growth of human tumour cells (NCI), 48 h
[1] = tested on: A549 NSCLC
[2] = tested on: UACC-257 melanoma
[3] = tested on: SN12C renal
[4] = tested on: TK-10 renal
[5] = tested on: MOLT-4 leukemia
[6] = tested on: PC-3 prostate
[7] = tested on: EKVX NSCLC
[8] = tested on: CAKI-1 renal
[9] = tested on: ACHN renal
[10] = tested on: SF-268 CNS
[11] = tested on: MDA-MB-231 breast
[12] = tested on: HCC-2998 colon
[13] = tested on: MDA-MB-435
[14] = tested on: HL-60(TB) leukemia
[15] = tested on: SK-MEL-2 melanoma
[16] = tested on: OVCAR-8 ovarian
[17] = tested on: HOP-92 NSCLC
[18] = tested on: HT29 colon
[19] = tested on: NCI/ADR-RES ovarian
[20] = tested on: U251 CNS
[21] = tested on: K-562 leukemia
[22] = tested on: SNB-19 CNS
[23] = tested on: SR leukemia
[24] = tested on: HS 578T breast
[25] = tested on: M14 melanoma
[26] = tested on: SF-295 CNS
[27] = tested on: SW-620 colon
[28] = tested on: SK-MEL-5 melanoma
[29] = tested on: OVCAR-5 ovarian
[30] = tested on: SK-MEL-28 melanoma
[31] = tested on: 786-0 renal
[32] = tested on: MCF7 breast
[33] = tested on: OVCAR-3 ovarian
[34] = tested on: HCT-15 colon
[35] = tested on: BT-549 breast
[36] = tested on: NCI-H522 lung
[37] = tested on: CCRF-CEM leukemia
[38] = tested on: OVCAR-4 ovarian
[39] = tested on: LOX IMVI melanoma
[40] = tested on: SNB-75 CNS
[41] = tested on: A498 renal
[42] = tested on: NCI-H460 lung
[43] = tested on: RPMI-8226 leukemia
[44] = tested on: MALME-3M melanoma
[45] = tested on: KM12 colon
[46] = tested on: UACC-62 melanoma
[47] = tested on: SK-OV-3 ovarian
[48] = tested on: HCT-116 colon
[49] = tested on: COLO 205 colon
[50] = tested on: UO-31 renal
[51] = tested on: NCI-H23 lung
[52] = tested on: T-47D breast
[53] = tested on: HOP-62 NSCLC
[54] = tested on: DU-145 prostate
[55] = tested on: IGROV1 ovarian
[56] = tested on: NCI-H226 lung
[57] = tested on: SF-539 CNS
[58] = tested on: RXF 393 renal

Cc1cc(O)c(C2=NN(c3ccc(S(N)(=O)=O)cc3)C(c3ccccc3O)C2)cc1Cl (stereo unspecified)
GI50 [1]: 2.67 µM | TGI [1]: 7.85 µM | GI50 [2]: 3.45 µM | TGI [2]: 8.74 µM | GI50 [3]: 2.8 µM | TGI [3]: 8.65 µM | GI50 [4]: 3.03 µM | TGI [4]: 7.32 µM | GI50 [5]: 3.11 µM | TGI [5]: 12.2 µM | GI50 [6]: 1.33 µM | TGI [6]: 3.26 µM | GI50 [7]: 1.96 µM | TGI [7]: 6.52 µM | GI50 [8]: 1.67 µM | TGI [8]: 4.12 µM | GI50 [9]: 2.58 µM | TGI [9]: 8.55 µM | GI50 [10]: 2.64 µM | TGI [10]: 8.06 µM | GI50 [11]: 1.91 µM | TGI [11]: 5.11 µM | GI50 [12]: 2 µM | TGI [12]: 3.81 µM | GI50 [13]: 2.01 µM | TGI [13]: 4.32 µM | GI50 [14]: 2.49 µM | TGI [14]: 6.14 µM | GI50 [15]: 4.85 µM | TGI [15]: 11.6 µM | GI50 [16]: 2.8 µM | TGI [16]: 8.54 µM | GI50 [17]: 1.46 µM | TGI [17]: 6.51 µM | GI50 [18]: 2.07 µM | TGI [18]: 4.07 µM | GI50 [19]: 2.82 µM | TGI [19]: 8.84 µM | GI50 [20]: 2.14 µM | TGI [20]: 5.16 µM | GI50 [21]: 2.17 µM | TGI [21]: 7.93 µM | GI50 [22]: 3.5 µM | TGI [22]: 11.4 µM | GI50 [23]: 2.22 µM | TGI [23]: 26.7 µM | GI50 [24]: 2.95 µM | TGI [24]: 10.5 µM | GI50 [25]: 1.75 µM | TGI [25]: 3.39 µM | GI50 [26]: 1.68 µM | TGI [26]: 3.5 µM | GI50 [27]: 1.7 µM | TGI [27]: 3.39 µM | GI50 [28]: 5.6 µM | TGI [28]: 18.2 µM | GI50 [29]: 1.7 µM | TGI [29]: 3.61 µM | GI50 [30]: 2.74 µM | TGI [30]: 6.8 µM | GI50 [31]: 2.04 µM | TGI [31]: 3.88 µM | GI50 [32]: 2.25 µM | TGI [32]: 6.12 µM | GI50 [33]: 2.61 µM | TGI [33]: 7.62 µM | GI50 [34]: 2.39 µM | TGI [34]: 6.25 µM | GI50 [35]: 2.08 µM | TGI [35]: 6.11 µM | GI50 [36]: 1.91 µM | TGI [36]: 4.72 µM | GI50 [37]: 3.12 µM | TGI [37]: > 24.7 µM | GI50 [38]: 2.89 µM | TGI [38]: 9.58 µM | GI50 [39]: 1.63 µM | TGI [39]: 3.03 µM | GI50 [40]: 1.54 µM | TGI [40]: 8.64 µM | GI50 [41]: 1.69 µM | TGI [41]: 7.29 µM | GI50 [42]: 2.07 µM | TGI [42]: 4.38 µM | GI50 [43]: 2.24 µM | TGI [43]: 10.1 µM | GI50 [44]: 2.2 µM | TGI [44]: 6.7 µM | GI50 [45]: 1.74 µM | TGI [45]: 3.4 µM | GI50 [46]: 2.18 µM | TGI [46]: 6.59 µM | GI50 [47]: 3.86 µM | TGI [47]: 13.2 µM | GI50 [48]: 1.57 µM | TGI [48]: 2.91 µM | GI50 [49]: 1.86 µM | TGI [49]: 3.41 µM | GI50 [50]: 0.181 µM | TGI [50]: 5.65 µM | GI50 [51]: 2 µM | TGI [51]: 4.38 µM | GI50 [52]: 2.61 µM | TGI [52]: 11.3 µM | GI50 [53]: 1.75 µM | TGI [53]: 3.68 µM | GI50 [54]: 2.41 µM | TGI [54]: 4.95 µM | GI50 [55]: 1.07 µM | TGI [55]: 5.66 µM | GI50 [56]: 1.83 µM | TGI [56]: 6.05 µM | GI50 [57]: 1.61 µM | TGI [57]: 3.04 µM | GI50 [58]: 2.05 µM | TGI [58]: 5.78 µM
